Data: patent publication US20140322315A1, “CYSTEAMINE AND/OR CYSTAMINE FOR TREATING ISCHEMIC INJURY” (The Regents of the University of California, priority 2011, published 2014)
Values joined by “and” are separate entries in the source; they are usually repeats but may differ in a detail not shown here. Equal entries are not always repeated. “Also recorded” adds a separate entry of the source.

Tests used:
[1] = design: species or system mice (C57BL/6); conditions: mouse, in vivo
[2] = tested on: LAD artery ligation ischemia/reperfusion; assay: Myocardial ischemia/reperfusion (LAD artery ligation) in mice: infarct area, echocardiography; assay type: in vivo, mice (C57BL/6); design: IA (Ischemic Area): unit not given beside the values
Method: To analyze ischemic damage and treatment with cysteamine a study in mice (C57BL/6-Male-12 weeks, 25 g) that are either pre-treated or naïve to cysteamine bitartrate was performed as follows.
Pre-treated animals received intra-peritoneal cysteamine, 60 mg/kg twice (120 mg/kg/day) 2 hours before surgery for LAD artery ligation. Following a 60 minute ligation period the obstruction was removed and another dose of cysteamine was given immediately at the time of reperfusion and also twice daily injections for 4 days following reperfusion. A control group received the same volumes of control IV solution injected instead of cysteamine. Acceptable volumes of blood were collected at baseline, and at predetermined time points after the ischemic insult in order to determine levels of surrogate markers of inflammation and plasma cysteamine. […] Before sacrifice, the LAD was re-occluded and Evan's Blue was injected through JVC in order to delineate the non-ischemic area. […] Echocardiography provided ventricular volume data as well as wall function. Hemodynamic studies provided muscle contractility data (specifically systolic data).
So far seven mice were studied. Four received control solution and 3 received cysteamine. […] This is a reduction of 13%.

[3] = tested on: adiponectin; assay: Adiponectin secretion by adipose tissue explants / isolated fat cells cultured with cysteamine; assay type: cell-based; conditions: 90 μM cysteamine, 45 min; p=0.002
Method: Fat biopsy adipose tissue (AT) samples were collagenase digested×1 hr at 37° C. in a rotating waterbath. Digested AT was then filtered through 425 μm nylon mesh to separate fat cells. Isolated fat cells (FC) were twice washed in physiologic salts buffer (Phillips 2008), filtered and twice washed again. FC were spun at 50×g to concentrate. 1 ml FC were resuspended in 9 ml of defined culture media (Phillips 2008) and FC were allowed to recover×10 hrs overnight at 37° C.
Adipocytes were isolated and allowed to recover×overnight then cultured with or without 90 μM cysteamine and media collected at the following time points (45, 90, 180, 24 hr). Western Blot analysis of 20 μl of media was performed with non-reducing 5× Loading buffer. […] The blot was washed and incubated with a secondary antibody (Goat anti-mouse IR 800) and densitometry measured on a LICOR densitometer. […]
To determine the time course of cysteamine effects on adiponectin, media was changed and FC were resuspended in 9 ml of defined media ±90 μM cysteamine. FC content and secretion of adiponectin into the media was assessed in duplicate culture at 0, 45, 90, 180 minutes and 24 hr. […] Signal detection and quantitative analysis was completed using the LiCOR Odyssey Machine (LiCOR, Lincoln, Nebr.). Multimeric content of cellular adiponectin was determined by dividing the AU for the multimer by the total AU per sample. […]

- mean terminal weight [1]: 18.3 g
Compound: NCCS [cysteamine, Cysteamine]
- body weight reduction [1]: 14%
- IA (Ischemic Area) ([2]; MEAN of 3 mice): 7.99
- IA/LV (cysteamine) (%) ([2]; MEAN of 3 mice, control 17.66%): 8.12%
- IA/AAR (cysteamine) (%) ([2]; MEAN of 3 mice, control 58.57%): 33.24%
- mean end diastolic volume (EDV), 24 h vs 72 h ([2]; cysteamine group, p=0.032): significant difference; also recorded: significant reduction
- relative amounts of ischemic damage compared with control groups ([2]; cysteamine treated vs control): about half
- IA/AAR (cysteamine) (%) ([2]; individual mice (raw data)): 38.02% and 34.78% and 26.92%
- IA/LV (cysteamine) (%) ([2]; individual mice (raw data)): 12.66% and 6.24% and 5.47%
- IA (Ischemic Area) ([2]; individual mice (raw data), cysteamine 60 mg/kg twice daily): 9.37 and 11.14 and 3.46
- IA/AAR ratio, cysteamine vs control group ([2]; p=0.004): significant reduction; also recorded: significant difference
- IA/LV ratio, cysteamine vs control group ([2]; p=0.008): significant reduction; also recorded: significant difference
- percentage change in ESV between 24 h and 72 h, vs control group ([2]; p=0.039): significantly greater percentage reduction
- percentage change in EDV between 24 h and 72 h, vs control group ([2]; p=0.04): significantly greater percentage reduction; also recorded: significant difference
- total adiponectin, treated vs untreated [3]: Significant difference
